Data as given in ChEMBL document CHEMBL3856243, “Structure-Activity Relationships and Kinetic Studies of Peptidic Antagonists of CBX Chromodomains” (J Med Chem, 2016).
The source made the active and inactive calls. The calls are words filed in the database; no cut-off is given here. Numbered stars: 1 amine (or outer) side, 2 acyl side, 3 side chain; on linkers, the order of the positions; unused ones are H or OH. Square brackets hold non-standard residues; d marks the D form. Peptide text beside a SMILES is read from it. * marks the point of attachment. X17 = CC(=O)N(CCCC[C@H](N[*:1])C(=O)[*:2])C1CC2CCC1C2; X5 = O=C([C@H](CCCCNC1C2CC3CC(C2)CC1C3)N[*:1])[*:2]; X3 = CN(C)C(NCCCC[C@H](N[*:1])C(=O)[*:2])=[N+](C)C; X15 = O=C([C@H](CCCCNC1CN2CCC1CC2)N[*:1])[*:2]; X14 = CCCN(CCCC[C@H](N[*:1])C(=O)[*:2])C(C)C; X8 = O=C([C@H](CCCCNC1CC2CCC1C2)N[*:1])[*:2]; Phe(4-CH2NH2) = NCc1ccc(C[C@H](N)C(=O)O)cc1; X19 = CN(CCCC[C@H](N[*:1])C(=O)[*:2])C1CNC1; Acetyl(2-naphthyl) = O=C(Cc1ccc2ccccc2c1)*; Lys(Et,iPr) = CCN(CCCC[C@H](N)C(=O)O)C(C)C; Benzoyl(4-tBu) = CC(C)(C)c1ccc(C(=O)*)cc1; Lys(Et2) = CCN(CC)CCCC[C@H](N)C(=O)O; Benzoyl(4-OMe) = COc1ccc(C(=O)*)cc1; Benzoyl(4-Me) = Cc1ccc(C(=O)*)cc1; X18 = O=C(Cc1c[nH]c2ccccc12)*; X2 = Cc1cccc(C(=O)*)c1; Boc = CC(C)(C)OC(=O)*; X1 = Cc1ccccc1C(=O)*; Bz = O=C(c1ccccc1)*

Tests used:
[1] = biological target: T1, E3 SUMO-protein ligase CBX4 (Homo sapiens, UniProt O00257); assay: Antagonist activity at recombinant human N-terminal His-tagged CBX4 chromodomain (8 to 65 residues) expressed in Escherichia coli Rosetta BL21(DE3)pLysS using biotin-labeled UNC4195 measured after 30 mins by AlphaScreen assay
T1 sequence (O00257 whole entry): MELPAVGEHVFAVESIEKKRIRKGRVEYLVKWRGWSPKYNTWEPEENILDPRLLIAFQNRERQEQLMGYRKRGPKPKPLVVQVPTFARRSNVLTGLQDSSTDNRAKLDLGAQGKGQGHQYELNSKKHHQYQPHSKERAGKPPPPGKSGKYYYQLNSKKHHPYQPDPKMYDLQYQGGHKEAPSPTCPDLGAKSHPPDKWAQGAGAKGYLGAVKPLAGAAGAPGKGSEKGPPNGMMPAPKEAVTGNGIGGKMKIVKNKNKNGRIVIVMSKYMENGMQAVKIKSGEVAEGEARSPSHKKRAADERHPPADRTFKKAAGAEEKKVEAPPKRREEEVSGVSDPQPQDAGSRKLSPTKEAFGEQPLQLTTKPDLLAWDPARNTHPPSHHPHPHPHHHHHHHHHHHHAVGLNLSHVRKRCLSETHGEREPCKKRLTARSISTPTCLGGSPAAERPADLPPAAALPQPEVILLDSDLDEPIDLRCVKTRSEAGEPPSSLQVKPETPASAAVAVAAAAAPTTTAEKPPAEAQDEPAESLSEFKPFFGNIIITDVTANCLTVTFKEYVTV

[2] = biological target: Chromobox protein homolog 5 (Homo sapiens, UniProt P45973); assay: Antagonist activity at recombinant human N-terminal His-tagged CBX5 chromodomain (18 to 75 residues) expressed in Escherichia coli Rosetta BL21(DE3)pLysS using ARTKQTARK(Me3)STGGKAPRKQL-K(Biotin)-NH2 measured after 30 mins by AlphaScreen assay
Sequence of Chromobox protein homolog 5 (P45973 whole entry, the tested form may be a part): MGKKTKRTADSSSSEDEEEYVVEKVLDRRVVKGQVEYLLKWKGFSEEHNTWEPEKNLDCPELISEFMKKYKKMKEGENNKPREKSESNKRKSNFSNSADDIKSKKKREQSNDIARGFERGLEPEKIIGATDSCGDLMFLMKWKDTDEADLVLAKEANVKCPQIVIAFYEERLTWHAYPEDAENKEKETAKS

[3] = biological target: T2, Chromobox protein homolog 8 (Homo sapiens, UniProt Q9HC52); assay: Antagonist activity at recombinant human N-terminal His-tagged CBX8 chromodomain (8 to 61 residues) expressed in Escherichia coli Rosetta BL21(DE3)pLysS using biotin-labeled UNC4195 measured after 30 mins by AlphaScreen assay
T2 sequence (Q9HC52 whole entry): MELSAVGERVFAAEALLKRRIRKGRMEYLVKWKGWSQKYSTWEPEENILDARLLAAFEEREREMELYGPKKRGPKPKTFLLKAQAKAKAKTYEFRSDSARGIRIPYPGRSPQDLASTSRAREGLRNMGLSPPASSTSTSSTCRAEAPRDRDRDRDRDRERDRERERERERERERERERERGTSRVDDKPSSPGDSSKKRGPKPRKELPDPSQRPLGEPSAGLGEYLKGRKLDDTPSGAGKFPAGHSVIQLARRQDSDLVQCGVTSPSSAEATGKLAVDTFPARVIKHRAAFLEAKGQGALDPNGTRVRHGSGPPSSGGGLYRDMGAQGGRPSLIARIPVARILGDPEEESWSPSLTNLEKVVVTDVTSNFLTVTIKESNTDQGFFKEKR

[4] = biological target: T3, Chromobox protein homolog 7 (Homo sapiens, UniProt O95931); assay: Antagonist activity at recombinant human C-terminal His-tagged CBX7 chromodomain (8 to 62 residues) expressed in Escherichia coli Rosetta BL21(DE3)pLysS using biotin-labeled UNC4195 measured after 30 mins by AlphaScreen assay
T3 sequence (O95931 whole entry): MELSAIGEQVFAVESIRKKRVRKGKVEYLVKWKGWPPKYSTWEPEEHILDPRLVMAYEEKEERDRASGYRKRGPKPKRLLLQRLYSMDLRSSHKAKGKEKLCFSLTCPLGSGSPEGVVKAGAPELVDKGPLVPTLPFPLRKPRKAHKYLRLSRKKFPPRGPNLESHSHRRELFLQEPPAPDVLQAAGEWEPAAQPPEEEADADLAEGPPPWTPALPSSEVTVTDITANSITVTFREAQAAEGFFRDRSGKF

[5] = biological target: T4, Chromodomain Y-like protein 2 (Homo sapiens, UniProt Q8N8U2); assay: Antagonist activity at recombinant human C-terminal His-tagged CDYL2 chromodomain (1 to 75 residues) expressed in Escherichia coli Rosetta BL21(DE3)pLysS using biotin-labeled UNC4195 measured after 30 mins by AlphaScreen assay
T4 sequence (Q8N8U2 whole entry): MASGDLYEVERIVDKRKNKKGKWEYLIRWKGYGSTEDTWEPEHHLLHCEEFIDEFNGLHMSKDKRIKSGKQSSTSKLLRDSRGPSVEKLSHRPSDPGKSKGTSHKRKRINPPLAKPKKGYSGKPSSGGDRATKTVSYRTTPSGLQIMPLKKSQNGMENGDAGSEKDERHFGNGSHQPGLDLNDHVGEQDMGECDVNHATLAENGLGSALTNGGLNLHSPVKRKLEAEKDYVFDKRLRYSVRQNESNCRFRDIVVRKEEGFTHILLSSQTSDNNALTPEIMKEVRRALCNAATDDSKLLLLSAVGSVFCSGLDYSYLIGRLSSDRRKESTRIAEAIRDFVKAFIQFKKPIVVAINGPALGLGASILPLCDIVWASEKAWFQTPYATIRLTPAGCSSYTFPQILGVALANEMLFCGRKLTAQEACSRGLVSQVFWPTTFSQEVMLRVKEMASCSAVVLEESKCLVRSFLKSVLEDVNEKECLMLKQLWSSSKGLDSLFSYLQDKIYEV

[6] = biological target: T5, Chromobox protein homolog 7 (Homo sapiens) (UniProt O95931); assay: Binding affinity to recombinant human C-terminal His-tagged CBX7 chromodomain (8 to 62 residues) expressed in Escherichia coli Rosetta BL21(DE3)pLysS by SPR method
T5 sequence (whole entry): T3 sequence (O95931 whole entry)

Structure (SMILES) | IC50 [1] [µM] | IC50 [2] [µM] | IC50 [3] [µM] | IC50 [4] [µM] | IC50 [5] [µM] | Activity [6]
CCN(CC)CCCC[C@H](NC(=O)[C@H](CC(C)C)NC(=O)[C@H](C)NC(=O)[C@H](Cc1ccccc1)NC(=O)CNC(=O)c1ccccc1)C(=O)N[C@@H](CO)C(=O)OC (Bz-GFAL[Lys(Et2)]S-OMe) | 46 |  |  |  |  | 
COC(=O)[C@H](CO)NC(=O)[C@H](CCCCNC(N(C)C)=[N+](C)C)NC(=O)[C@H](CC(C)C)NC(=O)[C@H](C)NC(=O)[C@H](Cc1ccccc1)NC(=O)CNC(=O)c1ccccc1 (Bz-GFAL[X3]S-OMe) | > 60 | > 60 | > 60 | > 60 |  | 
COC(=O)[C@H](CO)NC(=O)[C@H](CCCCNC1C2CC3CC(C2)CC1C3)NC(=O)[C@H](CC(C)C)NC(=O)[C@H](C)NC(=O)[C@H](Cc1ccccc1)NC(=O)CNC(=O)c1ccccc1 (stereo partly specified) (Bz-GFAL[X5]S-OMe) | > 60 | > 60 | > 60 | > 60 | 14 | 
COC(=O)[C@H](CO)NC(=O)[C@H](CCCCNC1CC2CCC1C2)NC(=O)[C@H](CC(C)C)NC(=O)[C@H](C)NC(=O)[C@H](Cc1ccccc1)NC(=O)CNC(=O)c1ccccc1 (stereo partly specified) (Bz-GFAL[X8]S-OMe) | > 60 | > 60 | > 60 | 51 | 5 | 
COC(=O)[C@H](CO)NC(=O)[C@H](CCCCNC1CN2CCC1CC2)NC(=O)[C@H](CC(C)C)NC(=O)[C@H](C)NC(=O)[C@H](Cc1ccccc1)NC(=O)CNC(=O)c1ccccc1 (stereo partly specified) (Bz-GFAL[X15]S-OMe) | > 60 | > 60 | > 60 | > 60 | 24 | 
COC(=O)[C@H](CO)NC(=O)[C@H](CCCCN(C(C)=O)C1CC2CCC1C2)NC(=O)[C@H](CC(C)C)NC(=O)[C@H](C)NC(=O)[C@H](Cc1ccccc1)NC(=O)CNC(=O)c1ccccc1 (stereo partly specified) (Bz-GFAL[X17]S-OMe) | > 60 | > 60 | > 60 | > 60 | 38 | 
COC(=O)[C@H](CO)NC(=O)[C@H](CCCCN(C)C1CNC1)NC(=O)[C@H](CC(C)C)NC(=O)[C@H](C)NC(=O)[C@H](Cc1ccccc1)NC(=O)CNC(=O)c1ccccc1 (Bz-GFAL[X19]S-OMe) | > 60 | > 60 | > 60 | > 60 | 8.6 | 
CCN(CC)CCCC[C@H](NC(=O)[C@H](CC(C)C)NC(=O)[C@H](C)NC(=O)[C@H](Cc1ccccc1)NC(=O)c1ccccc1C)C(=O)N[C@@H](CO)C(=O)OC (X1-FAL[Lys(Et2)]S-OMe) |  |  |  |  |  | Active
CCN(CC)CCCC[C@H](NC(=O)[C@H](CC(C)C)NC(=O)[C@H](C)NC(=O)[C@H](Cc1ccccc1)NC(=O)c1cccc(C)c1)C(=O)N[C@@H](CO)C(=O)OC (X2-FAL[Lys(Et2)]S-OMe) |  |  |  |  |  | Active
CCN(CC)CCCC[C@H](NC(=O)[C@H](CC(C)C)NC(=O)[C@H](C)NC(=O)[C@H](Cc1ccccc1)NC(=O)Cc1c[nH]c2ccccc12)C(=O)N[C@@H](CO)C(=O)OC (X18-FAL[Lys(Et2)]S-OMe) |  | > 60 | 15 | 1.7 | 0.11 | 
CCN(CC)CCCC[C@H](NC(=O)[C@H](CC(C)C)NC(=O)[C@H](C)NC(=O)[C@H](Cc1ccccc1)NC(=O)Cc1ccc2ccccc2c1)C(=O)N[C@@H](CO)C(=O)OC ({Acetyl(2-naphthyl)}-FAL[Lys(Et2)]S-OMe) | 5.2 | > 60 | 24 | 1.1 | 0.084 | 
CCN(CC)CCCC[C@H](NC(=O)[C@H](CC(C)C)NC(=O)[C@H](C)NC(=O)[C@H](Cc1ccccc1)NC(=O)c1ccc(C)cc1)C(=O)N[C@@H](CO)C(=O)OC ({Benzoyl(4-Me)}-FAL[Lys(Et2)]S-OMe) |  |  |  |  |  | Active
CCN(CC)CCCC[C@H](NC(=O)[C@H](CC(C)C)NC(=O)[C@H](C)NC(=O)[C@H](Cc1ccccc1)NC(=O)c1ccc(OC)cc1)C(=O)N[C@@H](CO)C(=O)OC ({Benzoyl(4-OMe)}-FAL[Lys(Et2)]S-OMe) | 0.75 | 12 | 3.3 | 0.25 | 0.26 | 
CCN(CCCC[C@H](NC(=O)[C@H](CC(C)C)NC(=O)[C@H](C)NC(=O)[C@H](Cc1ccccc1)NC(=O)c1ccc(C(C)(C)C)cc1)C(=O)N[C@@H](CO)C(=O)OC)C(C)C ({Benzoyl(4-tBu)}-FAL[Lys(Et,iPr)]S-OMe) |  | > 60 | 1 |  |  | 
CCCN(CCCC[C@H](NC(=O)[C@H](CC(C)C)NC(=O)[C@H](C)NC(=O)[C@H](Cc1ccccc1)NC(=O)c1ccc(C(C)(C)C)cc1)C(=O)N[C@@H](CO)C(=O)OC)C(C)C ({Benzoyl(4-tBu)}-FAL[X14]S-OMe) | 0.062 | > 60 |  | 0.032 | 0.11 | 
CCN(CC)CCCC[C@H](NC(=O)[C@H](CC(C)C)NC(=O)[C@H](C)NC(=O)[C@H](Cc1ccc(CNC(=O)OC(C)(C)C)cc1)NC(=O)c1ccc(C(C)(C)C)cc1)C(=O)N[C@@H](CO)C(=O)OC ({Benzoyl(4-tBu)}-[Phe(4-CH2NH2)](Boc)AL[Lys(Et2)]S-OMe) |  | 44 | 1.7 | 0.056 | 0.16 | 
CCN(CC)CCCC[C@H](NC(=O)[C@H](CC(C)C)NC(=O)[C@H](C)NC(=O)[C@H](Cc1ccc(CN)cc1)NC(=O)c1ccc(C(C)(C)C)cc1)C(=O)N[C@@H](CO)C(=O)OC ({Benzoyl(4-tBu)}-[Phe(4-CH2NH2)]AL[Lys(Et2)]S-OMe) |  | 53 | 2.4 | 0.063 | 0.075 | 
